In patent publication US20250170248A1, “SMARCA DEGRADERS AND USES THEREOF” (Kymera Therapeutics, Inc., priority 2021, published 2025):

Key:
Assay type in all cases: cell-based
SMARCA2 [1] = target: T1, SMARCA2 (Homo sapiens, UniProt P51531); test: MSD SMARCA2 degradation in A549 cell line; settings: 24 h; for Dmax: A549, A549 cells; for DC50: A549 cells, read-out: SMARCA2 MSD A549 degradation 24 h: Average external-Abs DC50
How it was run: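 A549 cells treated 24 h with compound, 3-fold series from 1000 nM. Lysates captured on MSD plates and SMARCA2 quantified with anti-SMARCA2 and SULFO-TAG secondary antibodies (electrochemiluminescence). DC50 and Dmax (% degradation at 24 h) reported as letter bins.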

SMARCA4 = target: T2, SMARCA4 (Homo sapiens, UniProt P51532); test: SMARCA4 Western blot degradation in MV4-11 cells; settings: for Dmax: MV4-11, MV4-11 cells, read-out: SMARCA4 MSD MV411 degradation 24 h: average Dmax %; for Dmax / DC50: 24 h; for DC50: read-out: SMARCA4 MSD MV411 degradation 24 h: Mean external-Abs DC50
T2 construct: SMARCA2/SMARCA4 protein degradation selectivity in MV4-11 cells; endogenous in cells; host or cells: MV4-11
T2 sequence (P51532 whole entry): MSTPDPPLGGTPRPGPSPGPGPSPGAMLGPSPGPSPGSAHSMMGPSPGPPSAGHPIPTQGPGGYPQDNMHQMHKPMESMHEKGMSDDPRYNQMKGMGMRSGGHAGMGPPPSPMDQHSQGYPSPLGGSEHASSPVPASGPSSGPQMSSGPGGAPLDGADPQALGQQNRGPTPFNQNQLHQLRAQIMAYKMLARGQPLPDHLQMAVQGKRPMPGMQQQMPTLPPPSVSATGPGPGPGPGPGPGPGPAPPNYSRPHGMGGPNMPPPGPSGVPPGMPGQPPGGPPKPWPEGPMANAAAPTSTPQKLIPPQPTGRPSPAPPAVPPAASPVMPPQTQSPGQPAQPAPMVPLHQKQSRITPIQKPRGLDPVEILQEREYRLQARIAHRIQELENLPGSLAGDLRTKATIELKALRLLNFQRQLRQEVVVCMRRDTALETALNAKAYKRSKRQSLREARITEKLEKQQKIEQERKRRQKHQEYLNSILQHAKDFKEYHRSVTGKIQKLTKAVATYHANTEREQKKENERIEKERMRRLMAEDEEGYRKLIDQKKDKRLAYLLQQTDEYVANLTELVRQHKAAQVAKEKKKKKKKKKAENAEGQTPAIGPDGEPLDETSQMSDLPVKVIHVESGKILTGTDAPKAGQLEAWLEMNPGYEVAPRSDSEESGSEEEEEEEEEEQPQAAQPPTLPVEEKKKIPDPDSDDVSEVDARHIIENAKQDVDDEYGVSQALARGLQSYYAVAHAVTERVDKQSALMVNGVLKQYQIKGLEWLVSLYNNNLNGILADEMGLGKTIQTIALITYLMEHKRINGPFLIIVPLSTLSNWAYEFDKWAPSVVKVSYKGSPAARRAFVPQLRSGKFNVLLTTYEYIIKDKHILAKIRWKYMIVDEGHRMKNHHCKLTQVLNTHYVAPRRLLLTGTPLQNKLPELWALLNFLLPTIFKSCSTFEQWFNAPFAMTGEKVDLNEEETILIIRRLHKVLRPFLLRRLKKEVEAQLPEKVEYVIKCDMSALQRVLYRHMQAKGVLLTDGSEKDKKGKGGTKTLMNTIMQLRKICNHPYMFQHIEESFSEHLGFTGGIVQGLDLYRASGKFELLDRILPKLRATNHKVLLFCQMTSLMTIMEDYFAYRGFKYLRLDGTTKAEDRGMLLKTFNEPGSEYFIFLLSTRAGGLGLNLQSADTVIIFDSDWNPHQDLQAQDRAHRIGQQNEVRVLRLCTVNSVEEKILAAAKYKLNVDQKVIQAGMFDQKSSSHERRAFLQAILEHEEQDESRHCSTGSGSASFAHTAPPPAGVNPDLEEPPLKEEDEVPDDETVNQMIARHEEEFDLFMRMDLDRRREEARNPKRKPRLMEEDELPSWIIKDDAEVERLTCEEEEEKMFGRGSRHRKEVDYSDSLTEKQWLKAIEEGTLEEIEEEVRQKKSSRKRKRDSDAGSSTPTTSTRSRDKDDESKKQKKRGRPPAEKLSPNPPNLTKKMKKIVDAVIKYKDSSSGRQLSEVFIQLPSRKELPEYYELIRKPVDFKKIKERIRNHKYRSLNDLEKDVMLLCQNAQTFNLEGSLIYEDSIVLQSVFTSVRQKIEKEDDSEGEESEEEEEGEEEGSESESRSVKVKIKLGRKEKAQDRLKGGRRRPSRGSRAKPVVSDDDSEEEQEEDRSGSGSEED
How it was run: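 MV4-11 cells (4×10^6/well) treated with compound for 24 h, lysed in RIPA with protease/phosphatase inhibitors, and SMARCA2, SMARCA4 and beta-actin detected by Western blot with LI-COR readout. Values reported as letter-coded DC50, 24 h Dmax % and SMARCA2/4 selectivity fold.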

SMARCA2 [2] = target: T1, SMARCA2; test: SMARCA2 Western blot degradation in MV4-11 cells; parameters: SMARCA2/SMARCA4 protein degradation selectivity in MV4-11 cells; endogenous in cells; host or cells: MV4-11; settings: for Dmax: MV4-11, MV4-11 cells, read-out: SMARCA2 MSD MV411 degradation 24 h: average Dmax %; for Dmax / DC50: 24 h; for DC50 / Selectivity in MV411: MV4-11 cells; for DC50: read-out: SMARCA2 MSD MV411 degradation 24 h: Mean external-Abs DC50; for Selectivity in MV411: SMARCA2/4 selectivity

T1 sequence (P51531 whole entry): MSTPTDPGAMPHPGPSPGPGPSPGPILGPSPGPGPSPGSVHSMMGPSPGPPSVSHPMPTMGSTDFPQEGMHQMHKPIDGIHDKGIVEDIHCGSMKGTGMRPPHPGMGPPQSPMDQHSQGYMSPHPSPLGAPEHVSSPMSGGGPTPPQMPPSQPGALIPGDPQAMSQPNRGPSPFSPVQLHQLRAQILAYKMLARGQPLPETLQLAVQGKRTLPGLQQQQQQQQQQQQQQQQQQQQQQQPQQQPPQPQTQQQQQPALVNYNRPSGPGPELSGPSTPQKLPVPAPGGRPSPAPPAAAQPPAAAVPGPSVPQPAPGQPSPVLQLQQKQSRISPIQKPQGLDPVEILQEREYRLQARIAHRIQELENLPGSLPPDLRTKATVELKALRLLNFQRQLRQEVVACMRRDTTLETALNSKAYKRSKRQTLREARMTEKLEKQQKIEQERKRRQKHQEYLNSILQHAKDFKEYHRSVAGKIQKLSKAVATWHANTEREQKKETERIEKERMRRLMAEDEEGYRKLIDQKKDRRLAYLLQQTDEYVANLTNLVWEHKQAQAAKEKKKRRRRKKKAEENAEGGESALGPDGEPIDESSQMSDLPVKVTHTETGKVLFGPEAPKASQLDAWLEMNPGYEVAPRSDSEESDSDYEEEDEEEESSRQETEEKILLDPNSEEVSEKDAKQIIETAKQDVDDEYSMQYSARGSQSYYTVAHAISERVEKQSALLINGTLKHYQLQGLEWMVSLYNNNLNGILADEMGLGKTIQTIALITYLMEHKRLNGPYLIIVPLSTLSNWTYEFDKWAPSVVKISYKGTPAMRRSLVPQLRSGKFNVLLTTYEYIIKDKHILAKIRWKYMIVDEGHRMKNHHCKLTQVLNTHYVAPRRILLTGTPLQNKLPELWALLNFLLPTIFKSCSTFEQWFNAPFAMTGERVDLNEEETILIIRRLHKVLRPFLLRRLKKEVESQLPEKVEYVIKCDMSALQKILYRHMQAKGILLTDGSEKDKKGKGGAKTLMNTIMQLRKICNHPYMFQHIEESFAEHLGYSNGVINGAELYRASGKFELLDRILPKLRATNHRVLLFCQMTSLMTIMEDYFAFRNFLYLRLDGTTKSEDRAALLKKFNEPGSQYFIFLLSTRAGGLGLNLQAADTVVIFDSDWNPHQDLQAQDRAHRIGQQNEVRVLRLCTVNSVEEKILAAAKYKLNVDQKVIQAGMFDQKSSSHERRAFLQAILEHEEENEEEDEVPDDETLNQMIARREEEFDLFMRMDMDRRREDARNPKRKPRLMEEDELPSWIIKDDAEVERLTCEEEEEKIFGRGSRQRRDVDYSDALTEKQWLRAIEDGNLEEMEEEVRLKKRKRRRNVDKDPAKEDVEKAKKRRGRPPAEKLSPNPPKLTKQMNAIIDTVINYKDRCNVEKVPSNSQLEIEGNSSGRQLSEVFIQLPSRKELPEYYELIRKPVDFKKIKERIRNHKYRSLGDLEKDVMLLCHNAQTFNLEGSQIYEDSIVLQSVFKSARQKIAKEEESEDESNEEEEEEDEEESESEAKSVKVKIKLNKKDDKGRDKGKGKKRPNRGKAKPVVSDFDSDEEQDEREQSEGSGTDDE

SMILES	Dmax (SMARCA2 [1]) [%]	DC50 (SMARCA2 [1]) [nM]	Dmax (SMARCA4) [%]	DC50 (SMARCA4; MV4-11 cells) [nM]	Dmax (SMARCA2 [2]) [%]	DC50 (SMARCA2 [2]) [nM]	Selectivity in MV411 (SMARCA2 [2])	SMARCA4 MSD MV411 degradation 24 h: average Dmax % (SMARCA4; MV4-11 cells)
C#Cc1cc(O)c(CNC(=O)[C@@H]2C[C@@H](O)CN2C(=O)[C@@H](NC(=O)N2CC3(CC(N4CCC(c5cnc(N6CCc7[nH]c8nnc(-c9ccccc9O)cc8c7[C@H]6C)nc5)CC4)C3)C2)C(C)(C)C)c(Cl)c1 [I-281]	< 50	> 100	< 50	> 100	< 50	> 100	D (D (<10 fold))	
C#Cc1ccc([C@H](C)NC(=O)[C@@H]2C[C@@H](O)CN2C(=O)[C@@H](NC(=O)N2CC3(CC(N4CCC(c5cnc(N6CCc7[nH]c8nnc(-c9ccccc9O)cc8c7[C@H]6C)nc5)CC4)C3)C2)C(C)(C)C)c(O)c1 [I-282]	> 90	< 10	70 to 90	> 100	70 to 90	1 to 10	C (C (10-100 fold))	
CC(C)C(C(=O)N1C[C@H](O)C[C@H]1C(=O)N[C@@H](C)C#Cc1ccccc1)c1cc(OCCN2CCC(N3CCC(N4CCC(CN5CCN6c7cc(-c8ccccc8O)nnc7NC[C@H]6C5)CC4)CC3)CC2)no1 (stereo partly drawn) [I-283]	70 to 90	> 100	< 50	> 100	< 50	> 100	D (D (<10 fold))	
C#Cc1ccc([C@H](C)NC(=O)[C@@H]2C[C@@H](O)CN2C(=O)C(c2cc(N3CCC(N4CCC(N5CCC(CN6CCN7c8cc(-c9ccccc9O)nnc8NC[C@H]7C6)CC5)CC4)CC3)no2)C(C)C)cc1 (stereo partly drawn) [I-291]	> 90	10 to 50	> 90	10 to 100	> 90	1 to 10	C (C (10-100 fold))	
C#Cc1ccc(CNC(=O)[C@@H]2C[C@@H](O)CN2C(=O)C(c2cc(OCCN3CCC(N4CCC(N5CCC(CN6CCN7c8cc(-c9ccccc9O)nnc8NC[C@H]7C6)CC5)CC4)CC3)no2)C(C)C)c(F)c1 (stereo partly drawn) [I-296]	> 90	50 to 100	70 to 90	10 to 100	> 90	1 to 10	C (C (10-100 fold))	
C#Cc1cnc(CNC(=O)[C@@H]2C[C@@H](O)CN2C(=O)C(c2cc(OCCN3CCC(N4CCC(N5CCC(CN6CCN7c8cc(-c9ccccc9O)nnc8NC[C@H]7C6)CC5)CC4)CC3)no2)C(C)C)c(OC)c1 (stereo partly drawn) [I-303]	> 90	> 100	< 50	> 100	70 to 90	10 to 100	B (B (>100-500 fold))	
C#Cc1ccc([C@@H](CO)NC(=O)[C@@H]2C[C@@H](O)CN2C(=O)[C@@H](NC(=O)N2CC3(CC(N4CCC(c5cnc(N6CCc7[nH]c8nnc(-c9ccccc9O)cc8c7[C@H]6C)nc5)CC4)C3)C2)C(C)(C)C)nc1 [I-305]	50 to 70	> 100	< 50	> 100	50 to 70	> 100	D (D (<10 fold))	
C#Cc1ccc(CNC(=O)[C@@H]2C[C@@H](O)CN2C(=O)[C@@H](NC(=O)N2CC3(CC(N4CCC(c5cnc(N6CCc7[nH]c8nnc(-c9ccccc9O)cc8c7[C@H]6C)nc5)CC4)C3)C2)C(C)(C)C)cc1Cl [I-309]	> 90	10 to 50	70 to 90	> 100	> 90	10 to 100	C (C (10-100 fold))	
C#Cc1ccc(CNC(=O)[C@@H]2C[C@@H](O)CN2C(=O)[C@@H](NC(=O)N2CC3(CC(N4CCC(c5cnc(N6CCc7[nH]c8nnc(-c9ccccc9O)cc8c7[C@H]6C)nc5)CC4)C3)C2)C(C)(C)C)cc1F [I-310]	> 90	10 to 50	> 90	> 100	> 90	1 to 10	C (C (10-100 fold))	

Further lines, results first:

Dmax (SMARCA2 [1]) [%]	DC50 (SMARCA2 [1]) [nM]	Dmax (SMARCA4) [%]	DC50 (SMARCA4; MV4-11 cells) [nM]	Dmax (SMARCA2 [2]) [%]	DC50 (SMARCA2 [2]) [nM]	Selectivity in MV411 (SMARCA2 [2])	SMARCA4 MSD MV411 degradation 24 h: average Dmax % (SMARCA4; MV4-11 cells)	SMILES
> 90	> 100	> 90	10 to 100	> 90	1 to 10	C (C (10-100 fold))		C#Cc1ccc(CNC(=O)[C@@H]2C[C@@H](O)CN2C(=O)[C@@H](NC(=O)[C@H]2CC3(C2)C[C@H](N2CCN(C(=O)CCN4CCN5c6cc(-c7ccccc7O)nnc6NC[C@H]5C4)CC2)C3)C(C)(C)C)cc1 (stereo partly drawn) [I-274]
	> 100		10 to 100		1 to 10	C (C (10-100 fold))		C#Cc1ccc(CNC(=O)[C@@H]2C[C@@H](O)CN2C(=O)[C@@H](NC(=O)[C@H]2CC3(C2)C[C@H](N2CCN(C(=O)CCN4CCN5c6cc(-c7ccccc7O)nnc6NC[C@H]5C4)CC2)C3)C(C)(C)C)cc1 (stereo partly drawn) [I-275]
> 90	< 10	> 90	10 to 100	> 90	1 to 10	C (C (10-100 fold))		C#Cc1ccc(CNC(=O)[C@@H]2C[C@@H](O)CN2C(=O)[C@@H](NC(=O)N2CC3(CC(c4cnc(N5CCC(N6CCN7c8cc(-c9ccccc9O)nnc8NC[C@H]7C6)CC5)nc4)C3)C2)C(C)(C)C)cc1 [I-276]
> 90	< 10	70 to 90	10 to 100	> 90	1 to 10	C (C (10-100 fold))		C#Cc1ccc(CNC(=O)[C@@H]2C[C@@H](O)CN2C(=O)[C@@H](NC(=O)c2ccc(N3CCC(N4CCC(N5CCN6c7cc(-c8ccccc8O)nnc7NC[C@H]6C5)CC4)CC3)cc2)C(C)(C)C)cc1 [I-277]
> 90	10 to 50	50 to 70	> 100	> 90	1 to 10	C (C (10-100 fold))		C#Cc1ccc(CNC(=O)[C@@H]2C[C@@H](O)CN2C(=O)[C@@H](NC(=O)N2CCN(C3CC4(CCN(c5cnc(N6CCN7c8cc(-c9ccccc9O)nnc8NC[C@H]7C6)nc5)CC4)C3)CC2)C(C)(C)C)cc1 [I-284]
> 90	< 10	70 to 90	10 to 100	> 90	1 to 10	C (C (10-100 fold))		C#Cc1ccc(CNC(=O)[C@@H]2C[C@@H](O)CN2C(=O)[C@@H](NC(=O)N2CC3(CC(N4CCC(c5cnc(N6CCc7[nH]c8nnc(-c9ccccc9O)cc8c7[C@H]6C)nc5)CC4)C3)C2)C(C)(C)CCO)cc1 [I-288]
> 90	< 10	> 90	10 to 100	> 90	1 to 10	C (C (10-100 fold))		C#Cc1ccc(CNC(=O)[C@@H]2C[C@@H](O)CN2C(=O)[C@@H](NC(=O)c2ccc(N3CCC(N4CCC(N5CCN6c7cc(-c8ccccc8O)nnc7NC[C@H]6C5)CC4)CC3)cn2)C(C)(C)C)cc1 [I-292]
> 90	10 to 50	50 to 70	> 100	70 to 90	1 to 10	B (B (>100-500 fold))		C#Cc1ccc(CNC(=O)[C@@H]2C[C@@H](O)CN2C(=O)[C@@H](NC(=O)[C@H]2CC[C@@H](CN3CCC(c4cnc(N5CCN6c7cc(-c8ccccc8O)nnc7NC[C@H]6C5)nc4)CC3)CC2)C(C)(C)C)cc1 [I-293]
> 90	< 10	70 to 90	10 to 100	> 90	1 to 10	C (C (10-100 fold))		C#Cc1ccc(CNC(=O)[C@@H]2C[C@@H](O)CN2C(=O)[C@@H](NC(=O)[C@H]2CC[C@H](CN3CCC(c4cnc(N5CCN6c7cc(-c8ccccc8O)nnc7NC[C@H]6C5)nc4)CC3)CC2)C(C)(C)C)cc1 [I-294]
	10 to 50		10 to 100		1 to 10	C (C (10-100 fold))		C#Cc1ccc(CNC(=O)[C@@H]2C[C@@H](O)CN2C(=O)[C@@H](NC(=O)[C@H]2CC3(C2)C[C@H](c2cnc(N4CCC(N5CCN6c7cc(-c8ccccc8O)nnc7NC[C@H]6C5)CC4)nc2)C3)C(C)(C)C)cc1 (stereo partly drawn) [I-302]
	> 100		> 100			D (D (<10 fold))	D (D (<50% degradation))	C#Cc1ccc(CNC(=O)[C@@H]2C[C@@H](O)CN2C(=O)[C@H](NC(=O)[C@H]2CCC3(CC2)C[C@H](N2CCN(c4cnc(N5CCN6c7cc(-c8ccccc8O)nnc7NC[C@H]6C5)nc4)CC2)C3)C(C)(C)CCO)c(Cl)c1 (stereo partly drawn) [I-307]
> 90	10 to 50	70 to 90	> 100	70 to 90	1 to 10	C (C (10-100 fold))		C#Cc1ccc(CNC(=O)[C@@H]2C[C@@H](O)CN2C(=O)[C@@H](NC(=O)N2CC3(CC(N4CCC(c5cnc(N6CCc7[nH]c8nnc(-c9ccccc9O)cc8c7[C@H]6CO)nc5)CC4)C3)C2)C(C)(C)C)c(Cl)c1 [I-318]
